Assay results as given in patent US4450269A, “Mono-5-substituted-3-chloro-4H-1,2,6-thiadiazin-4-one antifungal agents” (FMC Corporation, priority 1980, dated 1984).

Legend:
Cladosporium cucumerinum = test: Spore germination test; format: cell-based; conditions: CC, 48 hours
In short: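 Compound in acetone mixed into water agar at 40, 10, 2.5 and 1 ppm; plates seeded with spore suspension and incubated 48 hours at 24 °C. Percentage germinated spores counted and converted into a germination rating.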

Helminthosporium oryzae = test: Mycelial growth test; conditions: for inhibition at 5 ppm / inhibition at 10 ppm / inhibition at 20 ppm / inhibition at 40 ppm: Bipolaris oryzae, 72 h; for inhibition at 5 ppm: read-out: Percent Fungus Growth Inhibition, HO, 5 ppm, 72 hours; for inhibition at 10 ppm: read-out: Percent Fungus Growth Inhibition, HO, 10 ppm, 72 hours; for inhibition at 20 ppm: read-out: Percent Fungus Growth Inhibition, HO, 20 ppm, 72 hours; for inhibition at 40 ppm: read-out: Percent Fungus Growth Inhibition, HO, 40 ppm, 72 hours; for Percent Fungus Growth Inhibition: HO, 72 hours
Procedure: HO = Helminthosporium oryzae
Aliquots of previously prepared solutions of active ingredient in acetone were added to tubes containing 20 ml of sterile, melted potato dextrose agar that had been cooled to 50° C. to provide mixtures of 40, 20, 10, 5 and 2.5 ppm. The tubes were shaken to ensure thorough mixing of the chemical with the agar, and the mixture poured into petri dishes having 4 quadrants to solidify. Each quadrant was inoculated with a 4 mm diameter disc of agar containing mycelium of the test fungi and incubated at 25° C. for 72 hours during which the samples were alternately exposed to light for 12 hours and to darkness for 12 hours. Growth was measured at the end of the incubation period by measuring the diameter of each fungus colony. Two measurements of the diameter, perpendicular to each other, were taken and the values averaged. Data are reported as percent inhibition (%I) by the following formula: [formula] Captan and chlorothalonil were used as standards for comparison.

SMILES: COc1ccc(Cl)c(Oc2nsnc(Cl)c2=O)c1 [Compound 51, 3-chloro-5-[(2-chloro-5-methoxy)phenoxy]-4H--1,2,6-thiadiazin-4-one]
- Spore Germination Rating (Cladosporium cucumerinum; 1.0 ppm): 3 (60-80)
- Spore Germination Rating (Cladosporium cucumerinum; 2.5 ppm): 0 (0-10)
- Spore Germination Rating (Cladosporium cucumerinum; 10 ppm): 0 (0-10)
- Spore Germination Rating (Cladosporium cucumerinum; 40 ppm): 0 (0-10)
- inhibition at 5 ppm (Helminthosporium oryzae): 78%
- inhibition at 10 ppm (Helminthosporium oryzae): 100%
- inhibition at 20 ppm (Helminthosporium oryzae): 100%
- inhibition at 40 ppm (Helminthosporium oryzae): 100%

SMILES: O=c1c(Cl)nsnc1Oc1ccc(O)cc1 [Compound 35, 3-chloro-5-(4-hydroxyphenoxy)-4H-1,2,6-thiadiazin-4-one]
- Spore Germination Rating (Cladosporium cucumerinum; 1.0 ppm): 4 (80-100)
- Spore Germination Rating (Cladosporium cucumerinum; 2.5 ppm): 0 (0-10)
- Spore Germination Rating (Cladosporium cucumerinum; 10 ppm): 3 (60-80)
- Spore Germination Rating (Cladosporium cucumerinum; 40 ppm): 0 (0-10)
- inhibition at 5 ppm (Helminthosporium oryzae): 83%
- inhibition at 10 ppm (Helminthosporium oryzae): 100%
- inhibition at 20 ppm (Helminthosporium oryzae): 89%
- inhibition at 40 ppm (Helminthosporium oryzae): 100%

SMILES: Cc1cccc(Oc2nsnc(Cl)c2=O)c1 [Compound 21, 3-chloro-5-(3-methylphenoxy)-4H--1,2,6-thiadiazin-4-one]
- Spore Germination Rating (Cladosporium cucumerinum; 1.0 ppm): 1 (10-40)
- Spore Germination Rating (Cladosporium cucumerinum; 2.5 ppm): 0 (0-10)
- Spore Germination Rating (Cladosporium cucumerinum; 10 ppm): 0 (0-10)
- Spore Germination Rating (Cladosporium cucumerinum; 40 ppm): 0 (0-10)
- inhibition at 5 ppm (Helminthosporium oryzae): 64%
- inhibition at 10 ppm (Helminthosporium oryzae): 86%
- inhibition at 20 ppm (Helminthosporium oryzae): 100%
- inhibition at 40 ppm (Helminthosporium oryzae): 100%

SMILES: O=c1c(Cl)nsnc1Oc1ccc(Cl)cc1 [Compound 12, 3-chloro-5-(4-chlorophenoxy)-4H--1,2,6-thiadiazin-4-one]
- Spore Germination Rating (Cladosporium cucumerinum; 1.0 ppm): 2 (40-60)
- Spore Germination Rating (Cladosporium cucumerinum; 2.5 ppm): 0 (0-10)
- Spore Germination Rating (Cladosporium cucumerinum; 10 ppm): 0 (0-10)
- Spore Germination Rating (Cladosporium cucumerinum; 40 ppm): 0 (0-10)
- inhibition at 5 ppm (Helminthosporium oryzae): 59%
- inhibition at 10 ppm (Helminthosporium oryzae): 59%
- inhibition at 20 ppm (Helminthosporium oryzae): 100%
- inhibition at 40 ppm (Helminthosporium oryzae): 100%

SMILES: CC(=O)c1cccc(Oc2nsnc(Cl)c2=O)c1 [Compound 48, 3-(3-acetylphenoxy)-5-chloro-4H--1,2,6-thiadiazin-4-one]
- Spore Germination Rating (Cladosporium cucumerinum; 1.0 ppm): 0 (0-10)
- Spore Germination Rating (Cladosporium cucumerinum; 2.5 ppm): 0 (0-10)
- Spore Germination Rating (Cladosporium cucumerinum; 10 ppm): 0 (0-10)
- Spore Germination Rating (Cladosporium cucumerinum; 40 ppm): 0 (0-10)
- inhibition at 5 ppm (Helminthosporium oryzae): 100%
- inhibition at 10 ppm (Helminthosporium oryzae): 63%
- inhibition at 20 ppm (Helminthosporium oryzae): 100%
- inhibition at 40 ppm (Helminthosporium oryzae): 100%

SMILES: CC(=O)c1ccccc1Oc1nsnc(Cl)c1=O [Compound 49, 3-(2-acetylphenoxy)-5-chloro-4H--1,2,6-thiadiazin-4-one]
- Spore Germination Rating (Cladosporium cucumerinum; 1.0 ppm): 0 (0-10)
- Spore Germination Rating (Cladosporium cucumerinum; 2.5 ppm): 0 (0-10)
- Spore Germination Rating (Cladosporium cucumerinum; 10 ppm): 0 (0-10)
- Spore Germination Rating (Cladosporium cucumerinum; 40 ppm): 0 (0-10)
- inhibition at 5 ppm (Helminthosporium oryzae): 74%
- inhibition at 10 ppm (Helminthosporium oryzae): 100%
- inhibition at 20 ppm (Helminthosporium oryzae): 100%
- inhibition at 40 ppm (Helminthosporium oryzae): 100%

SMILES: Cc1ccc(Oc2nsnc(Cl)c2=O)c(Br)c1 [Compound 57, 3-[(2-bromo-4-methyl)-phenoxy]-5-chloro-4H--1,2,6-thiadiazin-4-one]
- Spore Germination Rating (Cladosporium cucumerinum; 1.0 ppm): 3 (60-80)
- Spore Germination Rating (Cladosporium cucumerinum; 2.5 ppm): 0 (0-10)
- Spore Germination Rating (Cladosporium cucumerinum; 10 ppm): 0 (0-10)
- Spore Germination Rating (Cladosporium cucumerinum; 40 ppm): 0 (0-10)
- inhibition at 5 ppm (Helminthosporium oryzae): 100%
- inhibition at 10 ppm (Helminthosporium oryzae): 100%
- inhibition at 20 ppm (Helminthosporium oryzae): 100%
- inhibition at 40 ppm (Helminthosporium oryzae): 100%

SMILES: Cc1cc(Oc2nsnc(Cl)c2=O)cc(C)c1Br [Compound 60, 3-[(4-bromo-3,5-dimethyl)-phenoxy]-5-chloro-4H--1,2,6-thiadiazin-4-one]
- Spore Germination Rating (Cladosporium cucumerinum; 1.0 ppm): 0 (0-10)
- Spore Germination Rating (Cladosporium cucumerinum; 2.5 ppm): 0 (0-10)
- Spore Germination Rating (Cladosporium cucumerinum; 10 ppm): 0 (0-10)
- Spore Germination Rating (Cladosporium cucumerinum; 40 ppm): 0 (0-10)
- inhibition at 5 ppm (Helminthosporium oryzae): 100%
- inhibition at 10 ppm (Helminthosporium oryzae): 77%
- inhibition at 20 ppm (Helminthosporium oryzae): 69%
- inhibition at 40 ppm (Helminthosporium oryzae): 100%

SMILES: Nc1ccc(Oc2nsnc(Cl)c2=O)cc1 [Compound 26, 5-(4-aminophenoxy)-3-chloro-4H--1,2,6-thiadiazin-4-one]
- Spore Germination Rating (Cladosporium cucumerinum; 1.0 ppm): 1 (10-40)
- Spore Germination Rating (Cladosporium cucumerinum; 2.5 ppm): 0 (0-10)
- Spore Germination Rating (Cladosporium cucumerinum; 10 ppm): 0 (0-10)
- Spore Germination Rating (Cladosporium cucumerinum; 40 ppm): 0 (0-10)
- inhibition at 20 ppm (Helminthosporium oryzae): 57%
- Percent Fungus Growth Inhibition (Helminthosporium oryzae; 5 ppm): 43%
- Percent Fungus Growth Inhibition (Helminthosporium oryzae; 40 ppm): 100%

SMILES: O=c1c(Cl)nsnc1Oc1c(Cl)c(Cl)c(Cl)c(Cl)c1Cl [Compound 31, 3-chloro-5-(pentachlorophenoxy)-4H--1,2,6-thiadiazine-4-one]
- Spore Germination Rating (Cladosporium cucumerinum; 1.0 ppm): 0 (0-10)
- Spore Germination Rating (Cladosporium cucumerinum; 2.5 ppm): 0 (0-10)
- Spore Germination Rating (Cladosporium cucumerinum; 10 ppm): 0 (0-10)
- Spore Germination Rating (Cladosporium cucumerinum; 40 ppm): 0 (0-10)
- inhibition at 5 ppm (Helminthosporium oryzae): 57%
- inhibition at 10 ppm (Helminthosporium oryzae): 86%
- inhibition at 20 ppm (Helminthosporium oryzae): 57%
- inhibition at 40 ppm (Helminthosporium oryzae): 100%

SMILES: O=c1c(Cl)nsnc1Oc1ccc(Br)cc1 [Compound 15, 3-chloro-5-(4-bromophenoxy)-4H--1,2,6-thiadiazin-4-one]
- Spore Germination Rating (Cladosporium cucumerinum; 1.0 ppm): 0 (0-10)
- Spore Germination Rating (Cladosporium cucumerinum; 2.5 ppm): 0 (0-10)
- Spore Germination Rating (Cladosporium cucumerinum; 10 ppm): 0 (0-10)
- Spore Germination Rating (Cladosporium cucumerinum; 40 ppm): 0 (0-10)
- inhibition at 5 ppm (Helminthosporium oryzae): 57%
- inhibition at 10 ppm (Helminthosporium oryzae): 90%
- inhibition at 20 ppm (Helminthosporium oryzae): 95%
- inhibition at 40 ppm (Helminthosporium oryzae): 100%
